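Following 48 hours of exposure in 96-well plates, responses at five concentrations were used to interpolate endpoints linearly. TGI denotes the concentration required for complete inhibition of growth.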
Key:
Assay in all cases: NCI-60 cell line screen, 48 h
[1] = test system: DU-145 prostate
[2] = test system: EKVX NSCLC
[3] = test system: MDA-MB-435
[4] = test system: MDA-N
[5] = test system: NCI-H23 lung
[6] = test system: OVCAR-5 ovarian
[7] = test system: PC-3 prostate
[8] = test system: SK-MEL-2 melanoma
[9] = test system: SN12C renal
[10] = test system: SR leukemia

N#C[C@H](c1nc2ccccc2[nH]1)c1nc2ccccc2nc1Cl
TGI [1]: 4.09 µM | TGI [2]: 30 µM | TGI [3]: > 78 µM | TGI [4]: > 62.9 µM | TGI [5]: > 54.3 µM | TGI [6]: > 66.2 µM | TGI [7]: > 52.1 µM | TGI [8]: > 59.1 µM | TGI [9]: 30.9 µM | TGI [10]: 13.8 µM

ClC1(Cl)C2CCOC21n1cnc2ccccc21 (stereo not given)
TGI [1]: > 100 µM | TGI [2]: > 100 µM | TGI [3]: > 100 µM | TGI [4]: > 100 µM | TGI [5]: > 100 µM | TGI [6]: > 100 µM | TGI [7]: > 100 µM | TGI [8]: > 100 µM | TGI [9]: > 100 µM | TGI [10]: > 100 µM

O=C1CSC2(CC(/C=C/c3ccccc3[N+](=O)[O-])=NN2c2cccc(S(=O)(=O)O)c2)N1c1nc2ccccc2s1 (stereo not given)
TGI [1]: 27.5 µM | TGI [2]: > 75 µM | TGI [3]: 28.1 µM | TGI [4]: 50.6 µM | TGI [5]: 34.4 µM | TGI [6]: 39.9 µM | TGI [7]: 35.4 µM | TGI [8]: 35.4 µM | TGI [9]: 54.9 µM | TGI [10]: 63.1 µM

COc1ccc(/C=C2\NC(=S)N(CN3CCOCC3)C2=O)cc1
TGI [1]: > 100 µM | TGI [2]: > 100 µM | TGI [3]: > 100 µM | TGI [4]: > 100 µM | TGI [5]: > 100 µM | TGI [6]: > 100 µM | TGI [7]: > 100 µM | TGI [8]: > 100 µM | TGI [9]: > 100 µM | TGI [10]: > 100 µM

O=C1CN2CCN(CC2)CC(=O)Nc2ccc(cc2)S(=O)(=O)c2ccc(cc2)NC(=O)CN2CCN(CC2)CC(=O)Nc2ccc(cc2)S(=O)(=O)c2ccc(cc2)N1
TGI [1]: > 100 µM | TGI [2]: > 100 µM | TGI [3]: > 89.7 µM | TGI [4]: > 100 µM | TGI [5]: > 90.4 µM | TGI [6]: 67.7 µM | TGI [7]: > 100 µM | TGI [8]: > 92.3 µM | TGI [9]: > 100 µM | TGI [10]: > 100 µM

O=C1OCC(CN2CCC(n3c(=O)[nH]c4ccccc43)CC2)=C1c1ccccc1
TGI [1]: 71.7 µM | TGI [2]: 57.1 µM | TGI [3]: 62.4 µM | TGI [4]: 78.7 µM | TGI [5]: 52.2 µM | TGI [6]: > 100 µM | TGI [7]: 41.6 µM | TGI [8]: 38.1 µM | TGI [9]: 53.1 µM | TGI [10]: 82.5 µM

CCOC(=O)C1=CN(Cc2ccccc2)C2ON=C(c3ccc(Cl)cc3)C2C1 (stereo not given)
TGI [1]: > 70 µM | TGI [2]: > 65.1 µM | TGI [3]: > 79.5 µM | TGI [4]: > 68.9 µM | TGI [5]: > 66.8 µM | TGI [6]: > 68.7 µM | TGI [7]: > 53.5 µM | TGI [8]: 38.6 µM | TGI [9]: > 65.4 µM | TGI [10]: 97.4 µM

c1ccc2c[n+](Cc3ccnc4ccccc34)ccc2c1
TGI [1]: > 100 µM | TGI [2]: > 100 µM | TGI [3]: > 100 µM | TGI [4]: > 100 µM | TGI [5]: > 100 µM | TGI [6]: > 100 µM | TGI [7]: > 100 µM | TGI [8]: > 100 µM | TGI [9]: > 100 µM | TGI [10]: > 100 µM

CCOc1ccnc2c(OC)c(C)c3nc4ccccc4nc3c12
TGI [1]: > 100 µM | TGI [2]: > 100 µM | TGI [3]: > 100 µM | TGI [4]: > 100 µM | TGI [5]: > 100 µM | TGI [6]: > 100 µM | TGI [7]: > 100 µM | TGI [8]: > 100 µM | TGI [9]: > 100 µM | TGI [10]: > 100 µM

COc1cc2oc(=O)cc(C)c2c(OC)c1OC
TGI [1]: > 100 µM | TGI [2]: > 100 µM | TGI [3]: > 100 µM | TGI [4]: > 100 µM | TGI [5]: > 100 µM | TGI [6]: > 100 µM | TGI [7]: > 100 µM | TGI [8]: > 100 µM | TGI [9]: > 100 µM | TGI [10]: > 100 µM

CCOC(=O)CCNC(=O)c1cc(C)cc2c1Oc1c(cc(C)cc1C(=O)NCCC(=O)OCC)S2
TGI [1]: > 100 µM | TGI [2]: > 100 µM | TGI [3]: > 100 µM | TGI [4]: > 100 µM | TGI [5]: > 100 µM | TGI [6]: > 100 µM | TGI [7]: > 100 µM | TGI [8]: > 100 µM | TGI [9]: > 100 µM | TGI [10]: > 100 µM

CN(C)C=Nc1cccc2c1NSN2
TGI [1]: > 100 µM | TGI [2]: > 100 µM | TGI [3]: > 100 µM | TGI [4]: > 100 µM | TGI [5]: > 100 µM | TGI [6]: > 100 µM | TGI [7]: > 100 µM | TGI [8]: > 100 µM | TGI [9]: > 100 µM | TGI [10]: > 100 µM

O=[N+]([O-])C(=C(\Cl)NCCO)/C(Cl)=C(/Cl)Br
TGI [1]: 20.6 µM | TGI [2]: 10.4 µM | TGI [3]: 2.67 µM | TGI [4]: 3.97 µM | TGI [5]: 11.1 µM | TGI [6]: 13.4 µM | TGI [7]: 7.68 µM | TGI [8]: 4.14 µM | TGI [9]: 5.77 µM | TGI [10]: 5.25 µM

CCN(CC)C(=O)CCNC(C)Cc1c[nH]c2ccccc12 (stereo not given)
TGI [1]: > 100 µM | TGI [2]: > 100 µM | TGI [3]: > 100 µM | TGI [4]: > 100 µM | TGI [5]: > 100 µM | TGI [6]: > 100 µM | TGI [7]: > 100 µM | TGI [8]: > 100 µM | TGI [9]: > 100 µM | TGI [10]: > 100 µM

CC1=NN(c2cccc(S(=O)(=O)O)c2)C2(C1)SCC(=O)N2c1nc2ccccc2s1 (stereo not given)
TGI [1]: > 100 µM | TGI [2]: > 100 µM | TGI [3]: > 100 µM | TGI [4]: > 100 µM | TGI [5]: > 100 µM | TGI [6]: > 100 µM | TGI [7]: > 100 µM | TGI [8]: > 100 µM | TGI [9]: > 100 µM | TGI [10]: > 100 µM

Cc1csc(CP(=O)(OC(C)C)OC(C)C)n1
TGI [1]: > 100 µM | TGI [2]: > 100 µM | TGI [3]: > 100 µM | TGI [4]: > 100 µM | TGI [5]: > 100 µM | TGI [6]: > 100 µM | TGI [7]: > 100 µM | TGI [8]: > 100 µM | TGI [9]: > 100 µM | TGI [10]: > 100 µM

O=C1CCCC1C(O)(C(F)(F)Cl)C(F)(F)Cl (stereo not given)
TGI [1]: > 10 µM | TGI [2]: > 10 µM | TGI [3]: > 10 µM | TGI [4]: > 10 µM | TGI [5]: > 10 µM | TGI [6]: > 10 µM | TGI [7]: > 10 µM | TGI [8]: > 10 µM | TGI [9]: > 10 µM | TGI [10]: > 10 µM

FC(F)(F)c1ccc(N=NN2CCCC2)cc1
TGI [1]: > 100 µM | TGI [2]: > 100 µM | TGI [3]: > 100 µM | TGI [4]: > 100 µM | TGI [5]: > 100 µM | TGI [6]: > 100 µM | TGI [7]: > 100 µM | TGI [8]: > 100 µM | TGI [9]: > 100 µM | TGI [10]: > 100 µM

Source: PubChem BioAssay (NCI)
